In this test the test system is patient with undifferentiated connective tissue disease. Put plainly: Example 2: clarithromycin re-challenge of Example 1 patient, symptoms and laboratory assessments. It counts as in vivo, human. As for the experimental part:
Subsequent to the observations made in Example 1, the patient was re-challenged with clarithromycin, and re-evaluated as to symptomatic efficiency. In parallel with clinical observations, laboratory assessments including erythrocyte sedimentation rate, C-reactive protein, and serum interleukins 1 and 6 were measured. The laboratory results are illustrated in Table 1.
On Jul. 29, 2002 the clarithromycin treatment of the patient from Example 1 was discontinued (Table 1). Their additional medications included: ZESTRIL® (Astra Zenica) at 1 mg/t.i.d., CALTRATE® with Vitamin D (Wyeth)/b.i.d., UNITHROID™ (Jerome Stevens Pharmaceuticals, Inc.) at 0.05 mg/day, TROZODONE® (Watson Laboratories, Inc.) at 50 mg/h.s., TYLENOL® (McNeil Consumer Brands) at 1 gm/p.r.n., multi-vitamins/p.r.n., iron tablets, quinine at 260 mg, and non-specific herbs. […] When the patient was observed on Aug. […] The symptoms were sufficiently severe that they asked to be restarted on clarithromycin. When observed on Aug. 15, 2002, they stated they had become “100% better” by Aug. 11, 2002. The patient was continued on clarithromycin at 500 mg b.i.d. and observed serially at weekly intervals on Aug. 22, 2002, Aug. 27, 2002, and Sep. 5, 2002.
These findings are similar to their clinical history over the past several years with respect to clarithromycin therapy and response of connective tissue symptoms.

Where [1] appears, read: Aug. 8, 2002, 10 days off clarithromycin.
The mark [2] stands for this setting: Aug. 15, 2002, clarithromycin restarted.
Where [3] appears, read: Aug. 22, 2002, on clarithromycin.
Setting [4] is: Aug. 27, 2002, on clarithromycin.
The mark [5] stands for this setting: Jul. 29, 2002, on clarithromycin 500 mg BID.
[6] abbreviates: Sep. 5, 2002, on clarithromycin.

Consider `CC[C@H]1OC(=O)[C@H](C)[C@@H](O[C@H]2C[C@@](C)(OC)[C@@H](O)[C@H](C)O2)[C@H](C)[C@@H](O[C@@H]2O[C@H](C)C[C@H](N(C)C)[C@H]2O)[C@](C)(OC)C[C@@H](C)C(=O)[C@H](C)[C@@H](O)[C@]1(C)O` [clarithromycin, 6-O-methylerythromycin], for which the ESR is, setting by setting: under setting [1], 25 mm/hr; under setting [2], 21 mm/hr; under setting [3], 34 mm/hr; under setting [4], 21 mm/hr; under setting [5], 29 mm/hr; under setting [6], 34 mm/hr. Also, the IL-6 was determined as 2.1 pg/mL under setting [1]; 0.9 pg/mL under setting [2]; 0.7 pg/mL under setting [3]; 1.1 pg/mL under setting [4]; 1 pg/mL under setting [6]. Moreover, the Symptoms result is, setting by setting: under setting [1], “generalized joint pain, associated with swelling”; (Aug. 15, 2002, clarithromycin 500 mg b.i.d. restarted, better on Aug. 11, 2002) 100% better; (Aug. 22, 2002, on clarithromycin 500 mg b.i.d.) “Doing well”; (Aug. 27, 2002, on clarithromycin 500 mg b.i.d.) “Doing well”; (Jul. 29, 2002, on clarithromycin 500 mg po BID, discontinued at this visit) “Good Control”; (Sep. 5, 2002, on clarithromycin 500 mg b.i.d.) “Doing well”. Besides, the CPR runs as follows: under setting [2], under 0.3 mg/dL; under setting [3], under 0.3 mg/dL; under setting [4], under 0.3 mg/dL; under setting [5], under 0.3 mg/dL; under setting [6], under 0.3 mg/dL. Also, under “over the re-challenge Jul. 29 to Sep. 5, 2002”, the “change in ESR, CRP, Interleukin-1, or Interleukin-6” value was “no significant change”.
